pEC50, pIC50: −log10 of the molar value. Read-outs that look alike come from different tables or passages of the source.
Tests used:
[1] = molecular target: T1, kappa opioid receptor (KOR) (Homo sapiens, UniProt P41145); assay: cell-based; conditions: kOR cAMP IC50, CHO-K1 cells expressing kOR; after activation with dynorphin B
T1 construct: host or cells: CHO-K1
Text: KOR cAMP Antagonist Assay

mu opioid receptor (MOR) [2] = molecular target: T2, mu opioid receptor (MOR) (Homo sapiens, UniProt P35372); assay: MOR cAMP antagonist assay; type: cell-based; set-up: host or cells: CHO-K1
T2 sequence (P35372 whole entry): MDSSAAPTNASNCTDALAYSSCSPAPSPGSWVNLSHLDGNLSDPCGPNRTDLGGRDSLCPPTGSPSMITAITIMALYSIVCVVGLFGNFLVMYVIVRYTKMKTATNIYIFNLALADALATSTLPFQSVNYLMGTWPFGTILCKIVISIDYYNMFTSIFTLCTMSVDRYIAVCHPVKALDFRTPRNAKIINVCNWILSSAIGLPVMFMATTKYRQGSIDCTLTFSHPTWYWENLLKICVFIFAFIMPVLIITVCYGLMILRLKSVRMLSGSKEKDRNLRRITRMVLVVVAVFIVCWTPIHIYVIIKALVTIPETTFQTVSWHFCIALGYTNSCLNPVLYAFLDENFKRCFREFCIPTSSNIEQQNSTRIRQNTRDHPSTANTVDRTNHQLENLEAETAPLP
Text: MOR cAMP Antagonist Assay

mu opioid receptor (MOR) [3] = molecular target: T2, mu opioid receptor (MOR); assay: MOR cAMP agonist assay
mu opioid receptor (MOR) [4] = molecular target: T2, mu opioid receptor (MOR); assay: MOR GTPγS agonist assay; type: biochemical; set-up: host or cells: CHO-K1
Text: Membranes obtained from the stable cell lines over-expressing MOR were subjected to GTPγS assay using SPA beads (Perkin Elmer, Cat #RPNQ0001).

Male Sprague-Dawley rats = assay: Hot plate assay; type: in vivo; conditions: rat, SC
Protocol: Male Sprague-Dawley rats weighing 275-300 grams were used in the study, n=8-10 per group. Animals are injected SC with 0.9% normal saline solution. At 15, 45, and 80 min after the injection, animals were placed onto a hotplate set to 52 degrees centigrade, and baseline latency is recorded (baseline latency=average time to 2nd withdrawal response consisting of either a lick of a rear paw, shaking a rear paw, backwards walking or jumping). A day later animals were injected SC with test compounds either in vehicle solution, or with a mix of compounds in solution. Next the test latency was recorded (test latency=time to withdrawal on the hotplate measured at 15, 45, 80, 120, 180 and 240 min using the procedure described). Times were then converted to % maximum possible effect (% MPE)=(test_latecy−baseline_latency)/(30 sec-baseline_latency); where 30 sec is the cutoff where the animal is removed if no response ifs observed as it is the time point at which injury is expected to occur.

[5] = membranes of CHO cells over-expressing MOR, SPA beads, read-out: MOR GTPγS EC50

T1 sequence (P41145 whole entry): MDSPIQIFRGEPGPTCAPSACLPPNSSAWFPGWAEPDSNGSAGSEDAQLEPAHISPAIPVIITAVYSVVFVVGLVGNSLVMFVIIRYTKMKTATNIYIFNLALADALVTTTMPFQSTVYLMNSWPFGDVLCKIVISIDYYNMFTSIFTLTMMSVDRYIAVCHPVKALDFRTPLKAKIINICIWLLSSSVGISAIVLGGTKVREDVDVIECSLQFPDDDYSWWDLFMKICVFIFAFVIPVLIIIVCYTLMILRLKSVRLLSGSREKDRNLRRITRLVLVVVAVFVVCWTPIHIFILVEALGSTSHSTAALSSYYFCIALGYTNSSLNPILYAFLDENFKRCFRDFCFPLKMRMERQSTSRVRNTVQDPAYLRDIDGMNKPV

Row | Structure (SMILES) | pIC50 [1] | pIC50 (mu opioid receptor (MOR) [2]) | pEC50 (mu opioid receptor (MOR) [3]) | pEC50 (mu opioid receptor (MOR) [4]; [5]) | further results
1 | CN(C)[C@H](CNC(=O)[C@@H]1C[C@]1(C)c1ccccc1)Cc1ccc(O)c(F)c1 [Compound B-30, (1R,2S)—N—((S)-2-(dimethylamino)-3-(3-fluoro-4-hydroxyphenyl)propyl)-2-methyl-2-phenylcyclopropane-1-carboxamide] | > 7.00 | > 7.00 |  |  | 
2 | CCN(CC)[C@H](CNC(=O)[C@@H]1C[C@]1(C)c1ccccc1)Cc1ccc(O)c(C)c1 [Compound B-41, (1R,2S)—N—((S)-2-(diethylamino)-3-(4-hydroxy-3-methylphenyl)propyl)-2-methyl-2-phenylcyclopropane-1-carboxamide] | 6.00 to 7.00 | 6.00 to 7.00 | > 7.00 |  | 
3 | CN(C)[C@H](CNC(=O)[C@@H]1C[C@]1(C)c1ccccc1)Cc1ccc(O)c(Cl)c1 [Compound B-55, (1R,2S)—N—((S)-3-(3-chloro-4-hydroxyphenyl)-2-(dimethylamino)-propyl)-2-methyl-2-phenylcyclopropane-1-carboxamide] | > 7.00 | > 7.00 |  |  | 
4 | Cc1cc(O)cc(C)c1C[C@@H](CNC(=O)c1ccc(Cl)c(Cl)c1)N(C)C [Compound C-24, (S)-3,4-dichloro-N-(2-(dimethylamino)-3-(4-hydroxy-2,6-dimethylphenyl)propyl)benzamide] | > 7.00 | > 7.00 |  | > 7.00 | 
5 | Cc1cc(O)cc(C)c1C[C@@H](CNC(=O)[C@@H]1C[C@]1(C)c1ccccc1)N(C)C [Compound B-47, (1R,2S)—N—((S)-2-(dimethylamino)-3-(4-hydroxy-2,6-dimethylphenyl)-propyl)-2-methyl-2-phenylcyclopropane-1-carboxamide] |  | > 7.00 | > 7.00 |  | 
6 | CN(C)[C@H](CNC(=O)[C@@H]1C[C@]1(C)c1ccccc1)Cc1ccc(O)cc1Cl [Compound B-15, (1R,2S)—N—((S)-3-(2-chloro-4-hydroxyphenyl)-2-(dimethylamino)-propyl)-2-methyl-2-phenylcyclopropane-1-carboxamide] | < 6.00 |  | < 6.00 |  | effect on the analgesic activity of agonist Compound B-56 in the hotplate test (Male Sprague-Dawley rats; co-dosed with Compound B-56, FIG. 1): blocks; effect on its own in the hotplate test (Male Sprague-Dawley rats; dosed alone, FIG. 1): no effect
7 | CN(C)[C@H](CNC(=O)[C@@H]1C[C@]1(C)c1ccccc1)Cc1ccc(O)cc1F [Compound B-31, (1R,2S)—N—((S)-2-(dimethylamino)-3-(2-fluoro-4-hydroxyphenyl)propyl)-2-methyl-2-phenylcyclopropane-1-carboxamide] | > 7.00 | > 7.00 | > 7.00 |  | 
8 | C[C@H](CC(=O)NC[C@H](Cc1ccc2c(c1)CC(=O)N2)N(C)C)c1ccccc1 [Compound A-22, (R)—N—((S)-2-(dimethylamino)-3-(2-oxoindolin-5-yl)propyl)-3-phenylbutanamide] |  | > 7.00 |  | > 7.00 | 
9 | CC(CC(=O)NC[C@H](Cc1ccc2c(c1)CC(=O)N2)N(C)C)c1ccccc1 (stereo in doubt) [Compound A-23, (S)—N—((S)-2-(dimethylamino)-3-(2-oxoindolin-5-yl)propyl)-3-phenylbutanamide] |  |  |  | > 7.00 | pIC50 (mu opioid receptor (MOR) [2]; read-out: MOR cAMP IC50, CHO-K1 cells expressing mOR, after activation with DAMGO at the EC80): > 7.00
10 | Cc1cc(O)cc(C)c1C[C@@H](CNC(=O)c1nccc2ccccc12)N(C)C [Compound C-34] |  | > 7.00 |  | > 7.00 | 
11 | Cc1cc(C[C@@H](CNC(=O)[C@@H]2C[C@]2(C)c2ccccc2)N(C)C)cc(C)c1O [Compound B-36, (1R,2S)—N—((S)-2-(dimethylamino)-3-(4-hydroxy-3,5-dimethylphenyl)propyl)-2-methyl-2-phenylcyclopropane-1-carboxamide] | > 7.00 | > 7.00 |  |  | 
12 | CN(C)[C@H](CNC(=O)c1cccc(Cl)c1)Cc1ccc(O)cc1Cl [Compound C-22] | 6.00 to 7.00 | < 6.00 |  | > 7.00 | 
13 | Cc1cc(O)cc(C)c1C[C@@H](CNC(=O)c1cc(Cl)c(Cl)cc1F)N(C)C [Compound C-57, (S)-4,5-dichloro-N-(2-(dimethylamino)-3-(4-hydroxy-2,6-dimethylphenyl)propyl)-2-fluorobenzamide] |  | > 7.00 |  | > 7.00 | 
14 | Cc1cc(O)ccc1C[C@@H](CNC(=O)[C@@H]1C[C@]1(C)c1ccccc1)N(C)C [Compound B-48, (1R,2S)—N—((S)-2-(dimethylamino)-3-(4-hydroxy-2-methylphenyl)propyl)-2-methyl-2-phenylcyclopropane-1-carboxamide] | > 7.00 | > 7.00 | < 6.00 |  | 
15 | Cc1cc(O)cc(C)c1C[C@@H](CNC(=O)c1ccc(C(F)(F)F)c(Cl)c1)N(C)C [Compound C-26] |  | > 7.00 |  | > 7.00 | 
16 | Cc1cc(O)ccc1C[C@@H](CNC(=O)[C@@H]1C[C@@]1(C)c1ccccc1)N(C)C [Compound B-56, (1R,2R)—N—((S)-2-(dimethylamino)-3-(4-hydroxy-2-methylphenyl)propyl)-2-methyl-2-phenylcyclopropane-1-carboxamide] | > 7.00 |  | > 7.00 |  | analgesic activity in the hotplate test (time to exhibit a withdrawal response) (Male Sprague-Dawley rats; hotplate 52 degrees centigrade, FIG. 1): analgesic
17 | CNC(=O)c1ccc(C[C@@H](CNC(=O)c2ccc(Cl)c(Cl)c2)N(C)C)cc1F [Compound C-39] |  | > 7.00 |  | > 7.00 | 
18 | Cc1cc(C[C@@H](CNC(=O)[C@@H]2C[C@]2(C)c2ccccc2)N(C)C)ccc1O [Compound B-42, (1R,2S)—N—((S)-2-(dimethylamino)-3-(4-hydroxy-3-methylphenyl)propyl)-2-methyl-2-phenylcyclopropane-1-carboxamide] | 6.00 to 7.00 | > 7.00 | > 7.00 |  | 
19 | CNC(=O)c1ccc(C[C@@H](CNC(=O)c2ccc(C)cc2C)N(C)C)cc1F [Compound C-40] | < 6.00 | > 7.00 |  | > 7.00 | 
20 | CN(C)[C@H](CNC(=O)c1ccccc1-c1ccccc1)Cc1ccc(O)cc1 [Compound C-66, (S)—N-(2-(dimethylamino)-3-(4-hydroxyphenyl)propyl)-[1,1′-biphenyl]-2-carboxamide] | 6.00 to 7.00 |  |  |  | pEC50 (mu opioid receptor (MOR) [4]): < 6.00; pIC50 (mu opioid receptor (MOR) [2]; CHO-K1 cells expressing mOR, after activation with DAMGO at the EC80, read-out: MOR cAMP IC50): < 6.00

From patent publication US20210147343A1 (priority 2018, published 2021)
